Consider one compound from US10603298B2, “Succinate dehydrogenase inhibitors (SDHi's)” (Medical Research Council, priority 2014, dated 2020).

Test [1] concerns adult primary rat cardiomyocytes. In words: ROS production (DHE oxidation) in adult primary cardiomyocytes during in situ IR. Conditions: 40 min ischaemia then reoxygenation, 4 mM in ischaemic buffer. The test is classed as cell-based. The protocol: FIG. 13: Tracking cardiomyocytes ROS levels in primary cardiomyocytes during in situ IR. Primary rat cardiomyocytes were subjected to 40 min ischaemia and reoxygenation with ROS levels tracked throughout the experiment by ratiometric measurement of dihydroethidium (DHE) oxidation. […] Representative traces of each condition are shown. The highlighted window indicates the period of the experiment expanded in detail in FIG. 3.a.
(§1) Male Sprague-Dawley rats (300-370 g) were terminally anaesthetised via IP injections of 200 mg/kg sodium pentobarbitone and 330 U/kg heparin. Hearts were excised and retrograde perfused on a Langendorff-perfusion system with 13 mL/min oxygenated KH buffer at 37° C. Cells were isolated by collagenase digestion using standard methods^41. […]
(§2) Cells were imaged within 36 hours of plating. […] Simulated ischaemia was achieved by replacing the buffer with a pre-gassed, hypoxic recording buffer simulating ischaemia (as above but lacking glucose and containing 10 mM sodium lactate, 14.8 mM KCl; pH 6.4) and by covering the heated stage with a transparent, gas-impermeant lid, forming a small chamber into which argon was forced to maintain hypoxia. pO2 was routinely measured as <2.0 mm Hg during simulated ischaemia. […]
(§3) ROS production was estimated by oxidation of DHE. […] All measured cell parameters were analysed with Fiji image processing software.

For test [2], the system named is mouse heart IR injury (myocardial infarction). As to the kind of experiment: In vivo mouse cardiac IR injury (LAD ligation), infarct size by triphenyltetrazolium chloride staining. As to conditions: dimethyl succinate 8 mg/kg/min infused in combination with dimethyl malonate. As for the experimental part: For the in vivo heart IR model an open-chest, in situ heart model was used^31,32. Male mice (8-10 weeks; Charles River Laboratories, UK) were anaesthetised with sodium pentobarbital (70 mg/kg intraperitoneally (i.p.)), intubated endotracheally and ventilated with 3 cm H2O positive-end expiratory pressure. Adequacy of anaesthesia was monitored using corneal and withdrawal reflexes. Ventilation frequency was kept at 110 breaths per minute with tidal volume between 125-150 μL. A thoracotomy was performed and the heart exposed by stripping the pericardium. A prominent branch of the left anterior descending coronary artery (LAD) was surrounded by a 7-0 Prolene suture that was then passed through a small plastic tube. Ischaemia was induced by tightening the tubing against the heart surface. To assess metabolites during IR in vivo, mice were divided into three groups: 30 min ischaemia, 30 min ischaemia plus 5 min reperfusion and 30 min sham-operation in which the suture was placed but the LAD was not occluded. At the end of each protocol tissue was removed from the at risk and peripheral areas of the heart, selected visually by comparing white versus red tissue, and snap-frozen in liquid nitrogen. […] Infarct size was assessed after 30 min of ischaemia followed by 120 min reperfusion using 2% triphenyltetrazolium chloride staining and is expressed as a percentage of the risk zone^33. […]

In a further test the test system is C2C12 myoblasts. In words: Succinate-dependent mitochondrial superoxide production (MitoSOX) in myoblasts. The test is classed as cell-based, mouse. As to conditions: C2C12 cells, normoxic, mitochondria hyperpolarised with oligomycin. The protocol:
C2C12 myoblasts were seeded in 35 mm glass bottom culture dishes (MatTek) and incubated for 24 h in low glucose (1 g/L) DMEM. 2 h prior to imaging DMEM was removed, and replaced with imaging buffer (132 mM NaCl; […]; 4.2 mM KCl; 1 mM MgCl2 1 mM CaCl2 adjusted to pH 7.4 with Tris base and supplemented with 2-deoxyglucose (25 μM), and sodium pyruvate (10 mg/L or 4 μM oligomycin as indicated). Myoblasts were pre-incubated with 2 μM MitoSOX for 15 min prior to imaging. MitoSOX fluorescence was monitored using a Nikon Eclipse Ti confocal microscope at 37° C. on a temperature controlled stage for 30 min. MitoSOX was excited at 510 nm and the emitted signal collected with a LP 560 filter following the indicated additions.

For test [3], the system named is adult primary rat cardiomyocytes. As to the kind of experiment: NAD(P)H autofluorescence in primary cardiomyocytes during in situ IR. Format: cell-based. Conditions: 4 mM in ischaemic buffer. The protocol: FIG. 14: Tracking NADH reduction state in primary cardiomyocytes during in situ IR. Primary rat cardiomyocytes were subjected to 40 min ischaemia and reoxygenation and NADH reduction state was tracked throughout the experiment by measurement of NAD(P)H autofluorescence. […] Representative traces of each condition are shown. The highlighted window indicates the period of the experiment expanded in detail in FIG. 3c.
as §1, §2, §3

Entries after “also recorded” stand apart in the source; their conditions may differ.

For `COC(=O)CCC(=O)OC` [dimethyl succinate], the “ROS production / DHE oxidation upon reperfusion” value in test [1] was “significantly increased mitochondrial ROS production during reperfusion; also recorded: amplified reperfusion DHE oxidation”. Further, in test [2], the “cardioprotection by dimethyl malonate after adding back dimethyl succinate” value was “cardioprotection was suppressed”. Further, the MitoSOX oxidation result in the test on C2C12 myoblasts was “increased MitoSOX oxidation”. In addition, the “NAD(P)H oxidation at reperfusion” value in test [3] was “suppressed”.
